In paper PMC6277434, “Discovery of a potent HMG-CoA reductase degrader that eliminates statin-induced reductase accumulation and lowers cholesterol” (Nature Communications, 2018):

Tests used:
WT HMGCR = target: T1, WT HMGCR (Cricetulus griseus, UniProt P00347); assay: Degradation of transfected wild-type HMGCR (with Insig-1) in CHO-7 cells; format: cell-based; conditions: cells co-expressing wild-type HMGCR and Insig-1, 5 h
T1 construct: expressed in transfected cells; host or cells: CHO-7
T1 sequence (P00347 1-887): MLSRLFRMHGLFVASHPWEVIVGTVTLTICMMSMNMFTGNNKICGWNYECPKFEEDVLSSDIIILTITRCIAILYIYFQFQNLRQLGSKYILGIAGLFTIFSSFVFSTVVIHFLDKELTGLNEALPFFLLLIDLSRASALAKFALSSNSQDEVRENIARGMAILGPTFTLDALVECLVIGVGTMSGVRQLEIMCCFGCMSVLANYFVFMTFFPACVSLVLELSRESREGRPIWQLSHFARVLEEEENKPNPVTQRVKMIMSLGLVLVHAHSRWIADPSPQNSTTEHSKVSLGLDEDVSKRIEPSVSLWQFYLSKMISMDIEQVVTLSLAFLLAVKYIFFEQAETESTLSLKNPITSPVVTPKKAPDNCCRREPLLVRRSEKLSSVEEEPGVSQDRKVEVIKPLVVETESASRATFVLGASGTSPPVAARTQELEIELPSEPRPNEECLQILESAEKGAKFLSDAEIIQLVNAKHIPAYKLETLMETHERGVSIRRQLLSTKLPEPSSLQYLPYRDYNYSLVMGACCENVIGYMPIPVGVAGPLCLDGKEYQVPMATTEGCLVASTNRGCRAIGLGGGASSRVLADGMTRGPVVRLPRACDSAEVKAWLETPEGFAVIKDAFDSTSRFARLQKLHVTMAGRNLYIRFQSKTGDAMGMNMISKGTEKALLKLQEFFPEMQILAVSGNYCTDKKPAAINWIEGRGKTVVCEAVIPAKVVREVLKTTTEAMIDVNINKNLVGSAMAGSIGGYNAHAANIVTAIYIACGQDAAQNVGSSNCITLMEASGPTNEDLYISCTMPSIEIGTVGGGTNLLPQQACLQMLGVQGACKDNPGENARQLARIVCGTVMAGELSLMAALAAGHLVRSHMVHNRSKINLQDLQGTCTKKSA
T1 sequence (O15503 1-277 partner): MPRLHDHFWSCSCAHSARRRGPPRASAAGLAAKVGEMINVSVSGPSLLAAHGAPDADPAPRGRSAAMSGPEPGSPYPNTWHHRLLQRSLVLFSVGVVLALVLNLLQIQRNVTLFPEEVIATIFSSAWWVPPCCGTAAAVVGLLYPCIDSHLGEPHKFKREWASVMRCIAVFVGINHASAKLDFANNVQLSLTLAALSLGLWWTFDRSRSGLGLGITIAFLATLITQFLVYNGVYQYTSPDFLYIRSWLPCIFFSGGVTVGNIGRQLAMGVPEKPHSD
Experimental: HMGCR protein of DMSO-treated cells was defined as 100. […] Lysates were immunoprecipitated and pellets were probed for anti-ubiquitin (P4D1) and anti-HMGCR (A9). e CHO-7 cells were transfected with indicated plasmids and treated as in d. Lysates were immunoprecipitated with anti-Flag M2 beads, and pellets were probed for anti-ubiquitin (HA) and anti-HMGCR (Flag). f CHO-7 cells were transfected with indicated plasmids, then treated with Cmpd 81 for 5 h. […] Data are from three independent experiments and presented as mean ± SD. Source data are provided as a Source Data File.
Cells were harvested and homogenized in the RIPA buffer (50 mM Tris-HCl, pH 8.0, 150 mM NaCl, 2 mM MgCl2, 1.5% NP-40, 0.1% SDS, and 0.5% sodium deoxycholate) supplemented with protease cocktail inhibitor, 10 μM MG-132, 10 μg ml^−1 leupeptin and 1 mM phenylmethylsulfonyl fluoride. The protein concentrations of lysates were determined using BCA method (Beyotime). […] Western blot images were captured by Amersham Imager 600 (GE Healthcare), and integrated optical intensities of each band were quantified by Image-Pro Plus 6 software (Media Cybernetics). […]

LXR signaling pathway = assay: RT-qPCR of LXR target genes (SREBP-1c, ABCA1, ABCG8) in Huh-7 cells; format: cell-based, human; conditions: 16 h
Experimental: Cells were treated as described in corresponding figure legends, then total RNA was extracted from cells or mouse livers using TRI Reagent (T9424, Sigma-Aldrich). Equal amounts of RNA from cells or mice receiving the same treatment were pooled were used for cDNA synthesis with oligo dT and reverse transcriptase MLV (Promega). Gene expression was analyzed by quantitative real-time PCR on a Stratagene Mx30005PTM Q-PCR Systems. The primers used were listed in Supplementary Tables 2–4. […]
pathway. a-c Huh-7 cells were treated with indicated compounds for 16 h and then harvested for total RNA isolation and RT-qPCR. Cells treated with LXR agonist T0901317 w ere used as positive controls. The relative mRNA levels of SREBP -1c (a), ABCA1 (b) and ABCG8 (c) were quantified . GAPDH was the reference gene. The relative mRNA level in DMSO-treated cells was defined as 1. Data are from 3 independent experiments and presented as mean ± SD.
(§1) (1 picture or pasted object on this page, not shown here)

Hmgcr mRNA [1] = assay: RT-qPCR of exogenous WT and mutated Hmgcr mRNA in Huh7 cells; format: cell-based; conditions: lovastatin
Experimental: (§2) Cells were treated as described in corresponding figure legends, then total RNA was extracted from cells or mouse livers using TRI Reagent (T9424, Sigma-Aldrich). Equal amounts of RNA from cells or mice receiving the same treatment were pooled were used for cDNA synthesis with oligo dT and reverse transcriptase MLV (Promega). Gene expression was analyzed by quantitative real-time PCR on a Stratagene Mx30005PTM Q-PCR Systems. The primers used were listed in Supplementary Tables 2–4.
a CHO-7 cells were treated with or without 1 μM lovastatin in medium B with 5%
LDPS and 50 μM mevalonate for 16 h, and harvested for total RNA isolation and
RT-qPCR. Quantifications of the relative mRNA levels of indicated SREBP target
as §1

Hmgcr mRNA [2] = assay: RT-qPCR of Hmgcr mRNA in SRD-13A cells; format: cell-based, Chinese hamster; set-up: HMGCR mRNA level, mean: scale not given here; conditions: for HMGCR mRNA level, mean: SRD-13A, 16 h
Experimental: as §2

With `C=CCC(O)(CC=C)CCCC(C)C1CCC2C3C(O)C=C4C(C)(C)C(O)CCC4(C)C3CCC12C` (stereo not shown) [Cmpd 81] the “protein level of transfected wild-type HMGCR” value (WT HMGCR) was “a reduction of the protein level” and the “expression of LXR target genes (SREBP-1c, ABCA1 and ABCG8) mRNA” value (LXR signaling pathway) was “did not induce the expression”.
For `CC[C@H](C)C(=O)O[C@H]1C[C@@H](C)C=C2C=C[C@H](C)[C@H](CC[C@@H]3C[C@@H](O)CC(=O)O3)[C@H]21` [Lovastatin, lovastatin], the “mRNA levels of both WT and mutated Hmgcr” value (Hmgcr mRNA [1]) was “did not show obvious change”, the “change in the amounts of Hmgcr mRNA” value (Hmgcr mRNA [2]; SRD-13A cells, lovastatin 16 h) was “no change” and the “HMGCR mRNA level, mean” value (Hmgcr mRNA [2]; lovastatin 0.001 uM) was 1. The “HMGCR mRNA level, mean” value (Hmgcr mRNA [2]; lovastatin 0.003 uM) was 1.03, the “HMGCR mRNA level, mean” value (Hmgcr mRNA [2]; lovastatin 0.01 uM) was 1.0471 and the “HMGCR mRNA level, mean” value (Hmgcr mRNA [2]; lovastatin 0.03 uM) was 1.185. The “HMGCR mRNA level, mean” value (Hmgcr mRNA [2]; lovastatin 0.1 uM) was 1.052, the “HMGCR mRNA level, mean” value (Hmgcr mRNA [2]; lovastatin 0.3 uM) was 0.9958 and the “HMGCR mRNA level, mean” value (Hmgcr mRNA [2]; lovastatin 1 uM) was 1.197. For the same compound, the “HMGCR mRNA level, mean” value (Hmgcr mRNA [2]; lovastatin 3 uM) was 1.009 and the “HMGCR mRNA level, mean” value (Hmgcr mRNA [2]; lovastatin 10 uM) was 1.04.
